# Reference: patent US9527850B2, “Benzyl piperidine compounds as lysophosphatidic acid (LPA) receptor antagonist” (Merck Patent GmbH, priority 2011, dated 2016)
# Target: T1, LPA2 receptor (LPA2R) (Homo sapiens, UniProt Q9HBW0)
# T1 construct: expressed in transfected cells; host or cells: U2OS
# Experiment: LPA2R-Calciumflux assay (intracellular calcium mobilisation, FLIPR)
# Type: cell-based
# Conditions: U2OS cells recombinant expressing LPA2R; inhibition of LPA-induced Ca-flux; 10 concentrations 30 uM to 1 nM, 1% DMSO
# T1 sequence (Q9HBW0 whole entry): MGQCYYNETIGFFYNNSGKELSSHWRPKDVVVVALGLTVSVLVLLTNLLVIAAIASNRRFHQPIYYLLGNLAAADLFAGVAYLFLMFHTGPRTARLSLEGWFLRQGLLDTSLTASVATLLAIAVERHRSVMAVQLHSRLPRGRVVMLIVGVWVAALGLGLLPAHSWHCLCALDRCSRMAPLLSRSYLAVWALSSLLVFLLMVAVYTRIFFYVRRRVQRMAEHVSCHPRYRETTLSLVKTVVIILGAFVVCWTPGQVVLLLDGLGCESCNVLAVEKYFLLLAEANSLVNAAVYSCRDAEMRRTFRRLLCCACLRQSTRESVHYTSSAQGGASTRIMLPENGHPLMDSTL
row,SMILES,IC50
1,Cc1cc2nc(C3CCCCN3Cc3ccc(C)c(C(F)(F)F)c3)[nH]c2cc1Cl (stereo not drawn) [compound 127],500 to 5000 nM
2,"Fc1ccc(CN2CCCC[C@H]2c2nc3cc(F)ccc3[nH]2)cc1 [compound 131, 5-Fluoro-2-[(S)-1-(4-fluoro-benzyl)-piperidin-2-yl]-1H-benzo-imidazole]",500 to 5000 nM
3,"Fc1ccc(CCCN2CCCCC2c2cc3cc(F)ccc3[nH]2)cc1 (stereo not drawn) [compound 132, 5-Fluoro-2-{1-[3-(4-fluoro-phenyl)-propyl)-piperidin-2-yl}-1H-indole]",5000 to 15000 nM
4,"Fc1ccc(CN2CCCCC2c2nc3nccnc3[nH]2)cc1 (stereo not drawn) [compound 133, 2-[1-(4-Fluoro-benzyl)-piperidin-2-yl]-1H-imidazo[4,5-b]pyrazine]",5000 to 15000 nM
5,"Cc1ccc(CN2CCC3C[C@]32c2nc3cc(F)ccc3[nH]2)cc1C (stereo partly drawn) [compound 135, 2-[(R)-2-(3,4-Dimethyl-benzyl)-2-aza-bicyclo-[3.1.0]hex-1-yl]-5-fluoro-1H-benzo-imidazole]",5000 to 15000 nM
6,"Fc1ccc(CN2CCCC[C@H]2c2cc3cc(F)ccc3[nH]2)cc1 [compound 137, 5-Fluoro-2-[(S)-1-(4-fluoro-benzyl)-piperidin-2-yl]-1H-indole]",500 to 5000 nM
7,"Cc1ccc(CN2CCCC[C@H]2c2cc3cc(F)ccc3[nH]2)cc1C [compound 139, 2-[(S)-1-(3,4-Dimethyl-benzyl)-piperidin-2-yl]-5-fluoro-1H-indole]",500 to 5000 nM
8,"Cc1ccc(CN2CCCC[C@@H]2c2nc3cc(Cl)cnc3[nH]2)cc1C [compound 140, 6-Chloro-2-[(R)-1-(3,4-dimethyl-benzyl)-piperidin-2-yl]-3H-imidazo[4,5-b]pyridine]",500 to 5000 nM
9,"Cc1ccc(CN2CCCC[C@H]2c2nc3cc(Cl)cnc3[nH]2)cc1C [compound 141, 6-Chloro-2-[(S)-1-(3,4-dimethyl-benzyl)-piperidin-2-yl]-3H-imidazo[4,5-b]pyridine]",500 to 5000 nM
10,"Cc1ccc(CN2CCCC[C@H]2c2nc3cc(F)ccc3[nH]2)cc1C [compound 142, 2-[(S)-1-(3,4-Dimethyl-benzyl)-piperidin-2-yl]-5-fluoro-1H-benzo-imidazole]",< 500 nM
11,"Cc1ccc(CN2CCCC[C@@H]2c2cc3ccccc3[nH]2)cc1 [compound 143, 2-[(R)-1-(4-Methyl-benzyl)-piperidin-2-yl)-1H-indole]",< 500 nM
12,"Fc1ccc(CN2CCCCC2c2cc3cccnc3[nH]2)cc1 (stereo not drawn) [compound 144, 2-[1-(4-Fluoro-benzyl)-piperidin-2-yl]-1H-pyrrolo[2,3-b]pyridine]",500 to 5000 nM

# The next lines start with the values.
row,IC50,SMILES
1,< 500 nM,"Cc1ccc(CN2CCCCC2c2nc3cc(Cl)cnc3[nH]2)cc1C (stereo not drawn) [compound 128, 6-Chloro-2-[1-(3,4-dimethyl-benzyl)-piperidin-2-yl]-3H-imidazo[4,5-b]pyridine]"
2,< 500 nM,"Cc1cccc(CN2CCCCC2c2nc3ccc(S(N)(=O)=O)cc3[nH]2)c1 (stereo not drawn) [compound 129, 2-[1-(3-Methyl-benzyl)-piperidin-2-yl]-3H-benzo-imidazole-5-sulfonic acid amide]"
3,< 500 nM,"Fc1ccc(CN2CCCCC2c2nc3cccnc3[nH]2)cc1 (stereo not drawn) [compound 130, 2-[1-(4-Fluoro-benzyl)-piperidin-2-yl]-3H-imidazo[4,5-b]pyridine]"
4,< 500 nM,"Cc1ccc(CN2CCCCC2c2nc3nccnc3[nH]2)cc1C (stereo not drawn) [compound 134, 2-[1-(3,4-Dimethyl-benzyl)-piperidin-2-yl]-1H-imidazo[4,5-b]pyrazine]"
5,< 500 nM,"Fc1ccc(CN2CCCC[C@@H]2c2cc3cc(F)ccc3[nH]2)cc1 [compound 136, 5-Fluoro-2-[(R)-1-(4-fluoro-benzyl)-piperidin-2-yl]-1H-indole]"
6,< 500 nM,"Cc1ccc(CN2CCCC[C@@H]2c2cc3cc(F)ccc3[nH]2)cc1C [compound 138, 2-[(R)-1-(3,4-Dimethyl-benzyl)-piperidin-2-yl]-5-fluoro-1H-indole]"
